Biological target: T1, human CD28 (shedding of sCD28 from cells) (Homo sapiens, UniProt P10747)
T1 construct: endogenous in cells; host or cells: CD4 T cells and PBMCs from fresh blood of healthy donors
Experiment: Inhibition of CD28 shedding in stimulated lymphocytes (CD4 with PHA and IL-2 or PBMCs with SEB)
Type: cell-based
Conditions: percent of soluble CD28 reduction from basal stimulation; constructs and isotype 3 μM, MMPi TMI-1 1 μM

T1 sequence (P10747 19-220): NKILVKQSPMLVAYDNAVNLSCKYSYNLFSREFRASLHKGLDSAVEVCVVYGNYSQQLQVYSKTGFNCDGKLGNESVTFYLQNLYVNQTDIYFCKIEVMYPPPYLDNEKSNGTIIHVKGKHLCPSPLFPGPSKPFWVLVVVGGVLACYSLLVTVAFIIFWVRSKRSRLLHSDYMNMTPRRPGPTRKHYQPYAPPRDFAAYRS

Structure (SMILES): CC#CCOc1ccc(S(=O)(=O)N2CCSC(C)(C)[C@@H]2C(=O)NO)cc1 [MMPi, TMI-1, reference compound]
- Inhibition (%) of CD28 shedding: 60.5%

Reference: patent US20230144459A1, “SHEDDING BLOCKING AGENTS WITH INCREASED STABILITY” (BIOND BIOLOGICS LTD., priority 2020, published 2023)
